Experimental data: PubChem BioAssay (NCI)
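Five concentrations, 48 hours, 96-well plates. TGI marks complete inhibition of growth.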

Legend:
Assay in all cases: NCI tumour cell line growth inhibition, 48 h
OVCAR-3 ovarian = system: OVCAR-3 ovarian
CCRF-CEM leukemia = system: CCRF-CEM leukemia
HCT-15 colon = system: HCT-15 colon
K-562 leukemia = system: K-562 leukemia
RPMI-8226 leukemia = system: RPMI-8226 leukemia
SNB-19 CNS = system: SNB-19 CNS
UACC-257 melanoma = system: UACC-257 melanoma
BT-549 breast = system: BT-549 breast
A498 renal = system: A498 renal
SF-295 CNS = system: SF-295 CNS
DU-145 prostate = system: DU-145 prostate
MALME-3M melanoma = system: MALME-3M melanoma
U251 CNS = system: U251 CNS
CAKI-1 renal = system: CAKI-1 renal
UACC-62 melanoma = system: UACC-62 melanoma
ACHN renal = system: ACHN renal
786-0 renal = system: 786-0 renal
LOX IMVI melanoma = system: LOX IMVI melanoma
COLO 205 colon = system: COLO 205 colon
HCT-116 colon = system: HCT-116 colon
SK-MEL-2 melanoma = system: SK-MEL-2 melanoma
MDA-N = system: MDA-N
SW-620 colon = system: SW-620 colon
M14 melanoma = system: M14 melanoma
SK-MEL-28 melanoma = system: SK-MEL-28 melanoma
RXF 393 renal = system: RXF 393 renal
MDA-MB-231 breast = system: MDA-MB-231 breast
HOP-92 NSCLC = system: HOP-92 NSCLC
NCI-H460 lung = system: NCI-H460 lung
OVCAR-8 ovarian = system: OVCAR-8 ovarian
EKVX NSCLC = system: EKVX NSCLC
SNB-75 CNS = system: SNB-75 CNS
TK-10 renal = system: TK-10 renal
OVCAR-4 ovarian = system: OVCAR-4 ovarian
HT29 colon = system: HT29 colon
MOLT-4 leukemia = system: MOLT-4 leukemia
SF-268 CNS = system: SF-268 CNS
MDA-MB-435 = system: MDA-MB-435
SK-OV-3 ovarian = system: SK-OV-3 ovarian
OVCAR-5 ovarian = system: OVCAR-5 ovarian
SK-MEL-5 melanoma = system: SK-MEL-5 melanoma
NCI-H23 lung = system: NCI-H23 lung
T-47D breast = system: T-47D breast
SF-539 CNS = system: SF-539 CNS
SN12C renal = system: SN12C renal
NCI-H522 lung = system: NCI-H522 lung
PC-3 prostate = system: PC-3 prostate
NCI/ADR-RES ovarian = system: NCI/ADR-RES ovarian
NCI-H226 lung = system: NCI-H226 lung
HL-60(TB) leukemia = system: HL-60(TB) leukemia
A549 NSCLC = system: A549 NSCLC
HOP-62 NSCLC = system: HOP-62 NSCLC
KM12 colon = system: KM12 colon
UO-31 renal = system: UO-31 renal

Cc1cc(-c2ccc(C(=O)C(Cl)(Cl)Cl)[nH]2)on1
TGI (OVCAR-3 ovarian): 90.1 µM | TGI (CCRF-CEM leukemia): > 100 µM | TGI (HCT-15 colon): > 100 µM | TGI (K-562 leukemia): > 100 µM | TGI (RPMI-8226 leukemia): > 100 µM | TGI (SNB-19 CNS): > 100 µM | TGI (UACC-257 melanoma): > 100 µM | TGI (BT-549 breast): 98.1 µM | TGI (A498 renal): > 100 µM | TGI (SF-295 CNS): > 100 µM | TGI (DU-145 prostate): 39.6 µM | TGI (MALME-3M melanoma): > 100 µM | TGI (U251 CNS): 28.7 µM | TGI (CAKI-1 renal): 36.7 µM | TGI (UACC-62 melanoma): > 100 µM | TGI (ACHN renal): > 100 µM | TGI (786-0 renal): > 100 µM | TGI (LOX IMVI melanoma): > 100 µM | TGI (COLO 205 colon): > 100 µM | TGI (HCT-116 colon): > 100 µM | TGI (SK-MEL-2 melanoma): 66.7 µM | TGI (MDA-N): > 100 µM | TGI (SW-620 colon): > 100 µM | TGI (M14 melanoma): > 100 µM | TGI (SK-MEL-28 melanoma): > 100 µM | TGI (RXF 393 renal): 41.9 µM | TGI (MDA-MB-231 breast): 60.1 µM | TGI (HOP-92 NSCLC): > 100 µM | TGI (NCI-H460 lung): 21.8 µM | TGI (OVCAR-8 ovarian): > 100 µM | TGI (EKVX NSCLC): > 100 µM | TGI (SNB-75 CNS): > 100 µM | TGI (TK-10 renal): 69.1 µM | TGI (OVCAR-4 ovarian): 70.1 µM | TGI (HT29 colon): 76.8 µM | TGI (MOLT-4 leukemia): > 100 µM | TGI (SF-268 CNS): > 100 µM | TGI (MDA-MB-435): 70.6 µM | TGI (SK-OV-3 ovarian): > 100 µM | TGI (OVCAR-5 ovarian): 73 µM | TGI (SK-MEL-5 melanoma): > 100 µM | TGI (NCI-H23 lung): 54.3 µM | TGI (T-47D breast): > 100 µM | TGI (SF-539 CNS): 33 µM | TGI (SN12C renal): 43.2 µM | TGI (NCI-H522 lung): 97.4 µM | TGI (PC-3 prostate): > 100 µM | TGI (NCI/ADR-RES ovarian): 94.3 µM | TGI (NCI-H226 lung): 62.9 µM | TGI (HL-60(TB) leukemia): 64.6 µM | TGI (A549 NSCLC): > 100 µM | TGI (HOP-62 NSCLC): 24.8 µM | TGI (KM12 colon): 24.6 µM | TGI (UO-31 renal): 56.7 µM
